This note sets out measurements from US20240201191A1, “CITRULLINATED PROTEINS AS BIOMARKERS AND THERAPY TARGETS FOR CANCER” (BOARD OF REGENTS, THE UNIVERSITY OF TEXAS SYSTEM, priority 2022, published 2024).

Square brackets hold non-standard residues; d marks the D form. Ends that are not written are not given here. Cit = NC(=O)NCCC[C@H](N)C(=O)O

Assay [1] relates to B cell-mediated IgG secretion. In words: ELISpot IgG assay. The class given is cell-based. The note with it: compared to media. The text has this:
(§1) Using ELISpot assays, we tested the unmodified and citrullinated forms of three pairs of synthesized ENO1 peptides predicted as having high MHC-II binding affinity and assessed B cell-mediated IgG and T cell-mediated IFNγ secretion (Table 9).

In assay [2] the test system is T cell-mediated IFNγ secretion. Description: ELISpot IFNγ assay. The following applies: compared to media. Format: cell-based.
Text: as §1

Regarding “AMQEFMILPVGASSFR*EAMR*GA (AMQEFMILPVGASSF[Cit]EAM[Cit]GA) [citrullinated peptide-2, citrullinated synthesized ENO1 peptide, R16(Cit.), R20(Cit.)]”, the “B cell-mediated IgG response (ELISpot)” value in assay [1] was “elicited a potent IgG response”.
For “R*AAVPSGASTGIYEALELR*DNDKTR* (RAAVPSGASTGIYEALELRDNDKTR; citrullinated arginines; MOD_RES (1)..(1) Citrullinated Arginine; MOD_RES (19)..(19) Citrullinated Arginine; MOD_RES (25)..(25) Citrullinated Arginine) [citrullinated peptide-1, citrullinated synthesized ENO1 peptide, position 32-56]”, in assay [1], the “B cell-mediated IgG response (ELISpot)” value is given as “elicited a potent IgG response”. The results for the “T cell-mediated IFNγ secretion (ELISpot)” value in assay [2] and in assay [2] (listed as citrullinated peptide 1) were “modest increase in IFNg secretion” and “higher amount of INFγ response”, respectively.
